Assay results from ChEMBL document CHEMBL6120955, “Computationally Driven Discovery of a BCR-ABL1 Kinase Inhibitor with Activity in Multidrug-Resistant Chronic Myeloid Leukemia” (J Med Chem, 2024).
Activity calls are given as the source filed them. No cut-off for these calls is given here.

Key:
in vitro = settings: dog, MDCK-MDR1
[1] = molecular target: Mast/stem cell growth factor receptor Kit (Homo sapiens) (UniProt P10721); assay: Binding affinity to human KIT at 1 uM by KINOMEscan analysis
Homo sapiens = species: Homo sapiens; assay: Binding affinity to human PDGFR at 1 uM by KINOMEscan analysis
[2] = Stability in human hepatocytes; type: ADME, cell-based, Hepatocyte
[3] = Stability in mouse hepatocytes; type: ADME, cell-based, Hepatocyte

Mast/stem cell growth factor receptor Kit (Homo sapiens), sequence (P10721 whole entry): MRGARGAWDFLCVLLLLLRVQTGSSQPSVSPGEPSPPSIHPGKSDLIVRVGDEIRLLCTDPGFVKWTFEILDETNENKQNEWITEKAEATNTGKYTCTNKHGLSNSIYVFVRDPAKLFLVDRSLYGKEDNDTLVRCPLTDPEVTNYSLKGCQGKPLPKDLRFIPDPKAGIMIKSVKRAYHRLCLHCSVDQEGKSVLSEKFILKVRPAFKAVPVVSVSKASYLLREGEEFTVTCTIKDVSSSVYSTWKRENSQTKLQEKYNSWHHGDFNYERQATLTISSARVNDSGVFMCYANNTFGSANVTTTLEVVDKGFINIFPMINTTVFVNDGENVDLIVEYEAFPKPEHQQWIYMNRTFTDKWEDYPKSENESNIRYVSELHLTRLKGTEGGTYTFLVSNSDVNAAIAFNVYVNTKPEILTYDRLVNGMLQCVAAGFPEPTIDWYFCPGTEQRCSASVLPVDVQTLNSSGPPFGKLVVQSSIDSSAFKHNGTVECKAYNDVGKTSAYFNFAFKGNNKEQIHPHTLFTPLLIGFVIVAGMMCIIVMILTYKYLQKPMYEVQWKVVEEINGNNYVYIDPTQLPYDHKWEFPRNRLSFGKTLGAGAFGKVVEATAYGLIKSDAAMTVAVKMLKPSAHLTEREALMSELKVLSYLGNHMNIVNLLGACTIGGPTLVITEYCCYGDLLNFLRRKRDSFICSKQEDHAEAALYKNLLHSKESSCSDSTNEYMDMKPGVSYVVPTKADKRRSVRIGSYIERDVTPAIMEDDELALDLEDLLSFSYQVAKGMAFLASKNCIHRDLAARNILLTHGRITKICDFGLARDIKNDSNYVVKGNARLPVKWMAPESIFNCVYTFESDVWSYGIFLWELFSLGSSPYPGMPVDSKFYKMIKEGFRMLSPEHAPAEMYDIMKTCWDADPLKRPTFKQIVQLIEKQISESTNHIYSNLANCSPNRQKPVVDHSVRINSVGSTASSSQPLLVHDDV

Row | efflux ratio (in vitro) | inhibition [1] | inhibition (Homo sapiens) | Stability [2] | Stability [3] | Structure (SMILES)
1 | 0.9 |  |  |  |  | COc1cc2ncnc(Nc3cccc(Cl)c3F)c2cc1OCCON1CCN(C)CC1
2 |  | inactive | inactive | Stable | Stable | COc1cc2c(Nc3ccc(Cl)c(OC)n3)c(C#N)cnc2cc1OCCON1CCN(C)CC1
